From patent publication US20080161232A1, “C5a Receptor Antagonist” (JERINI AG, priority 2005, published 2008) come the findings set out here.

Molecules are shown by their SMILES. Positions of bridges follow the written chain, without caps; N, C: chain ends. Non-standard residues stand in square brackets, D forms with d. Residues, ends and D or L forms follow the SMILES beside them. *: point of attachment. Dihydroorotyl(S) = O=C1C[C@@H](C(=O)*)NC(=O)N1; Phe(3-Cl) = N[C@@H](Cc1cccc(Cl)c1)C(=O)O; Phe(4-NH2) = Nc1ccc(C[C@H](N)C(=O)O)cc1; NMe2Phe = CN(C)[C@@H](Cc1ccccc1)C(=O)*; Phe(4-F) = N[C@@H](Cc1ccc(F)cc1)C(=O)O; 2Nal = N[C@@H](Cc1ccc2ccccc2c1)C(=O)O; Bta = N[C@@H](Cc1csc2ccccc12)C(=O)O; Hyp = O=C(O)[C@@H]1C[C@@H](O)CN1; d(hLeu) = CC(C)CC[C@@H](N)C(=O)O; dCha = N[C@H](CC1CCCCC1)C(=O)O; Agb = N=C(N)NCC[C@H](N)C(=O)O; NMeS = CN[C@@H](CO)C(=O)O; Nle = CCCC[C@H](N)C(=O)O; Orn = NCCC[C@H](N)C(=O)O; Nva = CCC[C@H](N)C(=O)O; Propionyl = CCC(=O)*

The first experiment deals with T1, human C5aR(CD88) (Homo sapiens, UniProt P21730).
T1 construct: expressed in transfected cells; host or cells: rat basophilic leukemia cells (RBL)
T1 sequence (P21730 1-350): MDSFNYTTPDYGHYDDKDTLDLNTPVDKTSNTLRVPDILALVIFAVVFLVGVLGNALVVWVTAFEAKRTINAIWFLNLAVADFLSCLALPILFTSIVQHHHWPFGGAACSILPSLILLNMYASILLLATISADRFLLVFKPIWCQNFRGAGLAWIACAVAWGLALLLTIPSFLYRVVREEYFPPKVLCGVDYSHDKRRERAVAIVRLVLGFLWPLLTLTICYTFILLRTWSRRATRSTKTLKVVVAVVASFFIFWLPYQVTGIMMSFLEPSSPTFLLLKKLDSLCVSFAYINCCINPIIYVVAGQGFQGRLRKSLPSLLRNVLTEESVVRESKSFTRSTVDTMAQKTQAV
Briefly: Determination of the IC50 value in an enzyme release assay (functional assay, antagonistic activity). The experiment is classed as cell-based. The settings on record: antagonistic activity; IC50 group in enzyme release assay, RBL cells expressing human C5aR(CD88); read-out: activity (group).
For the molecule `CC(=O)N[C@@H](Cc1ccccc1)C(=O)N[C@H]1CCCNC(=O)[C@H](Cc2ccc(N)cc2)NC(=O)[C@H](Cc2c[nH]c3ccccc23)NC(=O)[C@@H](CC2CCCCC2)NC(=O)[C@@H]2CCCN2C1=O` [Compound 14, Ac-Phe-[Orn-Pro-cha-Trp-Paf]] (Ac-F[Orn]P[dCha]W[Phe(4-NH2)]; lactam 2-C (inferred)), the IC50 lay in the range of 20 to 50 nM.

`CCC[C@@H]1NC(=O)[C@H](Cc2c[nH]c3ccccc23)NC(=O)[C@@H](CC2CCCCC2)NC(=O)[C@@H]2CCCN2C(=O)[C@@H](NC(=O)[C@H](Cc2ccccc2)NC(C)=O)CCCNC1=O` [Compound 31, Ac-Phe-[Orn-Pro-cha-Trp-Nva]] (Ac-F[Orn]P[dCha]W[Nva]; lactam 2-C): the IC50 lay within 10 to 20 nM.

For `CCC(=O)N[C@@H](Cc1ccccc1)C(=O)N[C@@H](CCCN)C(=O)N1CCC[C@H]1C(=O)N[C@H](CC1CCCCC1)C(=O)N[C@@H](Cc1csc2ccccc12)C(=O)N[C@@H](Cc1ccccc1)C(N)=O` [Compound 316, CH3CH2CO-Phe-Orn-Pro-cha-Bta-Phe-NH2] (Propionyl-F[Orn]P[dCha][Bta]F-NH2), the IC50 fell in the range of 20 to 50 nM.

With `CC(=O)N[C@@H](Cc1ccccc1)C(=O)N[C@H]1CCCNC(=O)[C@H](Cc2ccc(O)cc2)NC(=O)[C@H](Cc2c[nH]c3ccccc23)NC(=O)[C@@H](CC2CCCCC2)NC(=O)[C@@H]2CCCN2C1=O` [Compound 146, Ac-Phe-[Orn-Pro-cha-Trp-Tyr]] (Ac-F[Orn]P[dCha]WY; lactam 2-C), the IC50 was 20 to 50 nM.

For the molecule `CCCC[C@@H]1NC(=O)[C@H](Cc2c[nH]c3ccccc23)NC(=O)[C@@H](CC2CCCCC2)NC(=O)[C@@H]2CCCN2C(=O)[C@@H](NC(=O)[C@H](Cc2ccccc2)NC(=O)CON=C[C@H](O)[C@@H](O)[C@H](O)[C@H](O)CO)CCCNC1=O` [Compound 333, Fck-[Phe-Orn-Pro-cha-Trp-Nle]], the IC50 fell in the range of 50 to 200 nM.

`CC(C)CC[C@@H](NC(=O)[C@@H]1C[C@@H](O)CN1C(=O)[C@H](CCCN)NC(=O)[C@H](Cc1ccccc1)NC(=O)[C@@H]1CC(=O)NC(=O)N1)C(=O)N[C@@H](Cc1ccc(F)cc1)C(=O)N[C@@H](Cc1ccccc1)C(N)=O` [Compound 349, Hoo-Phe-Orn-Hyp-hle-Pff-Phe-NH2] ({Dihydroorotyl(S)}-F[Orn][Hyp][d(hLeu)][Phe(4-F)]F-NH2): the IC50 was 50 to 200 nM.

In the case of `CC(=O)N[C@@H](Cc1ccccc1)C(=O)N[C@@H](CCCN)C(=O)N1CCC[C@H]1C(=O)N[C@H](CCC(C)C)C(=O)N[C@@H](Cc1cccc(Cl)c1)C(=O)N[C@@H](Cc1ccc2ccccc2c1)C(N)=O` [Compound 288, Ac-Phe-Orn-Pro-hle-Mcf-2Ni—NH2] (Ac-F[Orn]P[d(hLeu)][Phe(3-Cl)][2Nal]-NH2), the IC50 lay within 50 to 200 nM.

Take `CCCC[C@@H]1NC(=O)[C@H](Cc2c[nH]c3ccccc23)NC(=O)[C@@H](CC2CCCCC2)NC(=O)[C@@H]2CCCN2C(=O)[C@@H](NC(=O)[C@H](Cc2ccccc2)N(C)C)CCCNC1=O` [Compound 331, Fbp-[Orn-Pro-cha-Trp-Nle]] (NMe2Phe-[Orn]P[dCha]W[Nle]; lactam 1-C): the IC50 is 50 to 200 nM.

For the molecule `CC(=O)N[C@@H](Cc1ccccc1)C(=O)N[C@@H](CCCN)C(=O)N(C)[C@@H](CO)C(=O)N[C@H](CC1CCCCC1)C(=O)N[C@@H](Cc1csc2ccccc12)C(=O)N[C@@H](Cc1ccccc1)C(N)=O` [Compound 247, Ac-Phe-Orn-NMS-cha-Bta-Phe-NH2] (Ac-F[Orn][NMeS][dCha][Bta]F-NH2), the IC50 fell in the range of 50 to 200 nM.

Turning to `CC(=O)N[C@@H](Cc1ccccc1)C(=O)N[C@H]1CCCNC(=O)[C@H](Cc2ccccc2)NC(=O)[C@H](Cc2c[nH]c3ccccc23)NC(=O)[C@@H](CC2CCCCC2)NC(=O)[C@@H]2C[C@@H](OC(C)=O)CN2C1=O` [Compound 176, Ac-Phe-[Orn-HyA-cha-Trp-Phe]] (Ac-F[Orn][Hyp](Ac)[dCha]WF; lactam 2-C), the IC50 is 50 to 200 nM.

In the case of `CC(=O)N[C@@H](Cc1ccccc1)C(=O)N[C@@H](Cc1c[nH]cn1)C(=O)N1CCC[C@H]1C(=O)N[C@H](CC1CCCCC1)C(=O)N[C@@H](Cc1csc2ccccc12)C(=O)N[C@@H](Cc1ccccc1)C(N)=O` [Compound 230, Ac-Phe-His-Pro-cha-Bta-Phe-NH2] (Ac-FHP[dCha][Bta]F-NH2), the IC50 was in the range of 50 to 200 nM.

For the molecule `CC(=O)N[C@@H](Cc1ccccc1)C(=O)N[C@@H](CCNC(=N)N)C(=O)N1CCC[C@H]1C(=O)N[C@H](CC1CCCCC1)C(=O)N[C@@H](Cc1csc2ccccc12)C(=O)N[C@@H](Cc1ccccc1)C(N)=O` [Compound 231, Ac-Phe-L22-Pro-cha-Bta-Phe-NH2] (Ac-F[Agb]P[dCha][Bta]F-NH2), the IC50 was 10 to 20 nM.

The experiment is the same for the next values; noted with them: functional assay of example 11, values in text; read-out: IC50.
As to `CC(=O)N[C@@H](Cc1ccccc1)C(=O)N[C@H]1CCCNC(=O)[C@H](Cc2ccc(N)cc2)NC(=O)[C@H](Cc2c[nH]c3ccccc23)NC(=O)[C@@H](CC2CCCCC2)NC(=O)[C@@H]2CCCN2C1=O` [Compound 14, Ac-Phe-[Orn-Pro-cha-Trp-Paf]] (Ac-F[Orn]P[dCha]W[Phe(4-NH2)]; lactam 2-C (inferred)), the IC50 is 30 nM.

The same experiment, now with this note: functional assay of example 11; noteworthy = IC50 less than 200 nM.
`CC(=O)N[C@@H](Cc1ccccc1)C(=O)N[C@H]1CCCNC(=O)[C@H](Cc2ccc(N)cc2)NC(=O)[C@H](Cc2c[nH]c3ccccc23)NC(=O)[C@@H](CC2CCCCC2)NC(=O)[C@@H]2CCCN2C1=O` [Compound 14, Ac-Phe-[Orn-Pro-cha-Trp-Paf]] (Ac-F[Orn]P[dCha]W[Phe(4-NH2)]; lactam 2-C (inferred)): the “inhibitory activity (in words)” value is “noteworthy inhibitory activity”.

On to `CCC[C@@H]1NC(=O)[C@H](Cc2c[nH]c3ccccc23)NC(=O)[C@@H](CC2CCCCC2)NC(=O)[C@@H]2CCCN2C(=O)[C@@H](NC(=O)[C@H](Cc2ccccc2)NC(C)=O)CCCNC1=O` [Compound 31, Ac-Phe-[Orn-Pro-cha-Trp-Nva]] (Ac-F[Orn]P[dCha]W[Nva]; lactam 2-C), for which the “inhibitory activity (in words)” value is listed as “without significant loss of activity”.

Staying with this experiment, now noted: functional assay of example 11; noteworthy = IC50 less than 200 nM; listed as Ac-Phe-[Orn-Pro-cha-Trp-Nva].
As to `CCC[C@@H]1NC(=O)[C@H](Cc2c[nH]c3ccccc23)NC(=O)[C@@H](CC2CCCCC2)NC(=O)[C@@H]2CCCN2C(=O)[C@@H](NC(=O)[C@H](Cc2ccccc2)NC(C)=O)CCCNC1=O` [Compound 31, Ac-Phe-[Orn-Pro-cha-Trp-Nva]] (Ac-F[Orn]P[dCha]W[Nva]; lactam 2-C), the “inhibitory activity (in words)” value was “noteworthy inhibitory activity”.
